SMILES strings stand for the structures. Positions count from the first letter of the chain named. Where “and” joins values, the source holds several entries; their conditions need not be identical. Equal values may be shown once. Read-outs that look alike come from different tables or passages of the source.

The source of these data is patent US20180008587A1, “THIOHYDANTOIN ANDROGEN RECEPTOR ANTAGONISTS FOR THE TREATMENT OF CANCER” (Jaressen Pharmaceutica NV, priority 2016, published 2018).

The target in assay [1] is T1, T877A AR mutant (Homo sapiens, UniProt P10275, T878A).
T1 sequence (P10275 1-920 T878A): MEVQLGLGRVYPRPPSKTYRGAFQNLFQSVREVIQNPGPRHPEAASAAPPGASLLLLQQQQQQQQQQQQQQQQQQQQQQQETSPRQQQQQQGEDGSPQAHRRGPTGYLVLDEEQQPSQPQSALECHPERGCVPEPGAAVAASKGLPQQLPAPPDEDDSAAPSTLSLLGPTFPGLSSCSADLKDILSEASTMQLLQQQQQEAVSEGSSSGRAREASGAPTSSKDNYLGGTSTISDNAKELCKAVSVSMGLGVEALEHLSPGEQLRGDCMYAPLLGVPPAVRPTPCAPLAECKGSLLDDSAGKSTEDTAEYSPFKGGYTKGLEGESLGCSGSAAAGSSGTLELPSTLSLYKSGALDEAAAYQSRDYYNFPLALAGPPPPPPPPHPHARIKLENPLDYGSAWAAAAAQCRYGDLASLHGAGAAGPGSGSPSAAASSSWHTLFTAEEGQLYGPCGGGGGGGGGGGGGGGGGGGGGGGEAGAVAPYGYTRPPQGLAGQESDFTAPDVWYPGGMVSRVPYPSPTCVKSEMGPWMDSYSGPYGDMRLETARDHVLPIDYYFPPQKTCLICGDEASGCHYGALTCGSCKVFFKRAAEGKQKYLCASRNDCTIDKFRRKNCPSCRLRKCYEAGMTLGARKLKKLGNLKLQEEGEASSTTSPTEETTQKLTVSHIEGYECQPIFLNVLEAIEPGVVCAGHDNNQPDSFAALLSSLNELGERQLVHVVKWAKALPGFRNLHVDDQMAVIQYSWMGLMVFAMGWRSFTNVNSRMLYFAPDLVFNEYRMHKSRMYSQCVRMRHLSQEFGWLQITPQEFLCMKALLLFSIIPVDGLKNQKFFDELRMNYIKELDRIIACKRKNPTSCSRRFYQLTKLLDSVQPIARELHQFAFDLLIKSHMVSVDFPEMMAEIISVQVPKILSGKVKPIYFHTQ
Conditions: cited from earlier work.

The target of assay [2] is T2, wild-type Androgen Receptor (AR-wt) (Homo sapiens, UniProt P10275).
T2 construct: expressed in transfected cells; host or cells: LNCaP (LNCaP AR (cs))
T2 sequence (P10275 1-920): T1 sequence (P10275 1-920 T878A) with A878T
Nature of the assay: LNCaP-AR-wt AG reporter assay (ARE firefly luciferase, agonist mode). Format: cell-based. Conditions: for Emax: read-out: LNCaP-AR-wt AG MAX % Stim. Put shortly: (§1)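 Read-out is luciferase luminescence taken 1 h after Steady-Glo addition, following 20-24 h compound exposure at 37 °C in LNCaP pools stably carrying wild-type or F876L AR. Cells were grown in charcoal-stripped serum. Antagonist wells received agonist at 400 pM (WT) or 600 pM (F876L).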
For orientation: In a reporter assay the amount or activity of a reporter protein is the signal.

Assay [3] deals with T3, F876L-VP16 (Homo sapiens, UniProt P10275, F877L).
T3 construct: VP16 (fusion partner); expressed in transfected cells; host or cells: HepG2
T3 sequence (P10275 1-920 F877L): T1 sequence (P10275 1-920 T878A) with F877L, A878T
As to the kind of experiment: AR-VP16 DNA binding assay, HepG2. In kind it is cell-based. Conditions: HepG2, antagonist mode, 1 nM R1881, 48 hours. On the procedure:
(§2) HepG2 cells were maintained in EMEM supplemented with 10% FBS. One day before transfection, the media was changed to EMEM with 10% CSS. […] Cells were then trypsinized, counted and resuspended at 500,000 cells/mL. For agonist mode, the compounds were serially diluted and 50 μL of the compound was added per well. 50 μL of the cells were added to each well and incubated for 48 hours. For antagonist mode, a final concentration of 90 pM (VP16 AR) or 1 nM (VP16 F876L) R1881 was added to the plate and incubated for 48 hours. The plates were then assayed using SteadyGlo and read on the Envision. Percent Stimulation and Inhibition were determined and analyzed using GraphPad Prism.

Assay [4] concerns the target T4, AR-VP16 (Homo sapiens, UniProt P10275).
T4 sequence (P10275 560-920 limits assumed): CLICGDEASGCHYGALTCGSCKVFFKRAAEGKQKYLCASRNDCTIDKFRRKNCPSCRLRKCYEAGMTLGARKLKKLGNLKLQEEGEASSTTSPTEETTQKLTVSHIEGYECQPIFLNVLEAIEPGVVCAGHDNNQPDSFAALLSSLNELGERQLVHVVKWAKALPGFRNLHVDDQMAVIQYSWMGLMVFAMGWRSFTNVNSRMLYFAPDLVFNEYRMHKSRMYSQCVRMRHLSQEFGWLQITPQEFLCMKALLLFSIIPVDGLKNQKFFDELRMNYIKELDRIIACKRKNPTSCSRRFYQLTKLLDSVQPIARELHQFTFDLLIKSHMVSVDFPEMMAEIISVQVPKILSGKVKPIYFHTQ
Nature of the assay: AR-VP16 DNA binding assay, HepG2. In kind it is cell-based. The settings on record: HepG2, antagonist mode, 90 pM R1881, 48 hours; read-out: IC50 VP16 WT. On the procedure:
as §2

Assay [5] concerns the target T2, wild-type Androgen Receptor (AR-wt). As to the kind of experiment: LNCaP-AR-wt ANT reporter assay (ARE firefly luciferase, antagonist mode). In kind it is cell-based. Conditions: for IC50: antagonist mode, 400 pM R-1881 challenge, −Log10(IC50 [Molar]), read-out: LNCaP-AR-wt ANT pIC50 (converted); for Emax: read-out: LNCaP-AR-wt ANT MAX % Inh. Put shortly: (§3)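 Puromycin-selected LNCaP pools, grown in charcoal-stripped serum, were incubated 20-24 h at 37 °C with compounds, plus agonist challenge at 400 pM for wild-type and 600 pM for F876L.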

Assay [6] addresses T5, F876L mutant Androgen Receptor (AR-F876L) (Homo sapiens, UniProt P10275, F877L).
T5 construct: expressed in transfected cells; host or cells: LNCaP (LNCaP F876L)
T5 sequence (P10275 1-920 F877L): T1 sequence (P10275 1-920 T878A) with F877L, A878T
Nature of the assay: LNCaP-AR-F876L AG reporter assay (ARE firefly luciferase, agonist mode). The settings on record: for Emax: read-out: LNCaP-AR-F876L AG MAX % Stim. Format: cell-based. Put shortly:
as §1

Assay [7] addresses T5, F876L mutant Androgen Receptor (AR-F876L). Nature of the assay: LNCaP-AR-F876L ANT reporter assay (ARE firefly luciferase, antagonist mode). The settings on record: for Emax: read-out: LNCaP-AR-F876L ANT MAX % Inh; for IC50: read-out: LNCaP-AR-F876L ANT pIC50 (converted). Format: cell-based. Put shortly:
as §3

Assay [8] relates to androgen dependent signaling. Nature of the assay: Hershberger assay. Format: in vivo, rat. On the procedure: The effect of AR antagonists on androgen dependent signaling in vivo was assessed using the Hershberger assay. In this assay, peripubertal castrated male Sprague-Dawley rats were administered AR antagonists described herein in the presence of testosterone (0.4 mg/kg testosterone propionate) and the weights of androgen dependent organs measured. Dosing was continued for 10 days and measurements taken 24 h after the last dose. The extent of antagonism of AR and consequent inhibition of organ growth was evaluated by comparison to the castration control. Compounds of Formula (I) were dosed orally QD and an endpoint assessment made by change in weight of 5 androgen sensitive organs (ASO): Paired Cowper's Glands (CG), Seminal Vesicles with Fluids and Coagulating Glands (SVCG), Glans Penis (GP), Ventral Prostate (VP) and Levator Ani-Bulbocavernosus Complex (LABC)). According to assay guidelines, statistically significant suppression of ASO is required in 2 of 5 organs for a compound to be classified as an anti-androgen (analysis was performed by t-test/Mann-Whitney).
Compounds defined herein were administered at the indicated dose (mg/kg) and flutamide (FT), positive control, at 3 mg/kg. All compounds were co-administered with testosterone propionate (TP, 0.4 mg/kg) which was also administered alone, untreated control, (castrated only rats served as the control for complete androgen blockade). A statistically significant change in ASO achieved in at least 2 of 5 organs was indicative of an active compound.

The mark [9] stands for this setting: maximum % stimulation (agonist response) over tested concentration range.
Setting [10] is: maximum % inhibition of R1881 control response over tested concentration range.
[11] abbreviates: 3 mg/kg orally QD 10 days with testosterone propionate 0.4 mg/kg, castrated rats, mean ± SD (n=6).

Turning to `CC(C)(O)C(=O)Nc1ccc([N+](=O)[O-])c(C(F)(F)F)c1` [hydroxyflutamide], the “activity in T877A AR mutant” value in assay [1] was “act as AR agonists”.

In the case of `Cc1cc(N2C(=O)C3(CCC3)N(c3ccc(OC4CCN(CCO)CC4)cc3)C2=S)cnc1C#N` [Cpd 60, 5-[8-[4-[[1-(2-hydroxyethyl)-4-piperidyl]oxy]phenyl]-5-oxo-7-thioxo-6,8-diazaspiro[3.4]octan-6-yl]-3-methyl-pyridine-2-carbonitrile], the EC50 in assay [2] (agonist mode, −Log10(EC50 [Molar]), read-out: LNCaP-AR-wt AG pEC50 (converted)) was > 15100 nM; in assay [6] (agonist mode, −Log10(EC50 [Molar]), read-out: LNCaP-AR-F876L AG pEC50 (converted)) it was > 15100 nM. Moreover, the Emax in assay [2] (setting [9]) was found to be 1.1%; in assay [5] (setting [10]), 98.7%; in assay [6] (setting [9]), 0.7%; in assay [7] (setting [10]) it was 99.3%. For the same compound, the IC50 in assay [3] is 746 nM; in assay [4] it was 2050 nM; in assay [5], 933 nM; in assay [7] it was 525 nM.

In the case of `CN1CCN(CCCc2ccc(N3C(=S)N(c4cnc(C#N)c(C(F)(F)F)c4)C(=O)C34CCC4)cc2)CC1` [Cpd 43, 5-[8-[4-[3-(4-methylpiperazin-1-yl)propyl]phenyl]-5-oxo-7-thioxo-6,8-diazaspiro[3.4]octan-6-yl]-3-(trifluoromethyl)pyridine-2-carbonitrile], the EC50 in assay [2] and in assay [6] was > 15100 nM each time. Also, the Emax in assay [2] worked out at 0.7%; in assay [5], 97.3%; in assay [6] it was 0.4%; in assay [7], 98.9%. In addition, the IC50 in assay [5] was 501 nM; in assay [7] it was 245 nM. The “reduction in ASO versus TP control” value in assay [8] (all 5 organs, p≦0.05) is on record as “significant reduction in ASO”.

In the case of `CC(C)C(=O)Nc1ccc([N+](=O)[O-])c(C(F)(F)F)c1` [Flutamide, flutamide, reference compound], in assay [8] (setting [11]), the “ASO Organ Growth (% of TP control) SVCG” value was 22.5 ± 22.9 % of TP control and 16.6 ± 16.3 % of TP control; the “ASO Organ Growth (% of TP control) VP” value was 31.1 ± 29.2 % of TP control and 24.4 ± 35.5 % of TP control.
